Where a SMILES comes first, the peptide text is derived from it. [ ]: non-standard residue; d: D form. ξ: configuration not given here. Dab = NCC[C@H](N)C(=O)O; Dap = NC[C@H](N)C(=O)O; ξDab = NCCC(N)C(=O)O; ξDap = NCC(N)C(=O)O
Columns and labels:
Hairpin ribozyme RNA [1] = test system: Hairpin ribozyme RNA
Description: Cleavage rate against hairpin ribozyme at 2 mM, in presence of 0.5 uM magnesium ions

Hairpin ribozyme RNA [2] = test system: Hairpin ribozyme RNA; remark: listed apart in the source
Description: Cleavage rate against hairpin ribozyme at 5 mM with 0.5 uM magnesium ions

Structure (SMILES)	K obs (Hairpin ribozyme RNA [1])	K obs (Hairpin ribozyme RNA [2])
NC[C@H](N)C(=O)O	0.061	0.045
NCCCC(=O)O	0.0088	0.023
NCCC(=O)O	0.018	0.03
N=C(N)NCCC[C@H](N)C(=O)O	0.016	0.034
NCCC(NC(=O)[C@@H](N)CCN)C(=O)O (some centres not stated) (H-[Dab]-[ξDab]-OH)	0.021	
N[C@H](Cc1c[nH]cn1)C(=O)O	0.0085	0.026
NCC[C@H](N)C(=O)NC(CN)C(=O)O (some centres not stated) (H-[Dab]-[ξDap]-OH)	0.02	
NC[C@@H](N)C(=O)O	0.02	0.022
NCCCC[C@H](N)C(=O)O	0.016	0.013
NCCC[C@@H](N)C(=O)O	0.0086	0.034
NCC(NC(=O)[C@@H](N)CN)C(=O)O (some centres not stated) (H-[Dap]-[ξDap]-OH)	0.024	
NCC(=O)O	0.017	0.03
N[C@@H](Cc1c[nH]cn1)C(=O)O	0.037	0.013
NCC[C@H](N)C(=O)O	0.085	0.08
NCCCNCCCCNCCCN	0.073	0.065
NCCCC[C@@H](N)C(=O)O	0.004	0.026
NCCC(NC(=O)[C@@H](N)CN)C(=O)O (some centres not stated) (H-[Dap]-[ξDab]-OH)	0.026	
NCC[C@@H](N)C(=O)O	0.023	0.027

— ChEMBL document CHEMBL1133851, “Novel spermine-amino acid conjugates and basic tripeptides enhance cleavage of the hairpin ribozyme at low magnesium ion concentration” (Bioorg Med Chem Lett, 2001)
